According to ChEMBL document CHEMBL1201862, “PubChem BioAssay data set” (2004):
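All cell lines were grown in 96-well plates and treated with compound for 48 hours. GI50: concentration for 50% inhibition of growth.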 Active and inactive are the calls of the source. No stated cut-off is given here; in the data, active = GI50 up to about 1.1 µM and inactive = higher.

Key:
Assay in all cases: DTP human tumour cell line panel, 48 h
PC-3 = test system: PC-3
HT-29 = test system: HT-29
HCT-116 = test system: HCT-116
TK-10 = test system: TK-10
U-251 = test system: U-251
NCI-H226 = test system: NCI-H226
SF-268 = test system: SF-268
SK-MEL-28 = test system: SK-MEL-28
HOP-92 = test system: HOP-92
DU-145 = test system: DU-145
IGROV-1 = test system: IGROV-1
RXF 393 = test system: RXF 393
COLO 205 = test system: COLO 205
MCF7 = test system: MCF7
SF-539 = test system: SF-539
SW-620 = test system: SW-620
OVCAR-3 = test system: OVCAR-3
SK-MEL-5 = test system: SK-MEL-5
CAKI-1 = test system: CAKI-1
MOLT-4 = test system: MOLT-4
T47D = test system: T47D
A498 = test system: A498
MDA-N = test system: MDA-N
UACC-257 = test system: UACC-257
LOX IMVI = test system: LOX IMVI
UO-31 = test system: UO-31
RPMI-8226 = test system: RPMI-8226
A549 = test system: A549
OVCAR-4 = test system: OVCAR-4
HCC 2998 = test system: HCC 2998
SNB-75 = test system: SNB-75
786-0 = test system: 786-0
HCT-15 = test system: HCT-15
NCI/ADR-RES = test system: NCI/ADR-RES
SF-295 = test system: SF-295
UACC-62 = test system: UACC-62
NCI-H23 = test system: NCI-H23
HL-60 = test system: HL-60
ACHN = test system: ACHN
K562 = test system: K562
SN12C = test system: SN12C
SK-OV-3 = test system: SK-OV-3
MDA-MB-231 = test system: MDA-MB-231
SK-MEL-2 = test system: SK-MEL-2
KM12 = test system: KM12
OVCAR-8 = test system: OVCAR-8
Malme-3M = test system: Malme-3M
NCI-H460 = test system: NCI-H460
CCRF-CEM = test system: CCRF-CEM
EKVX = test system: EKVX
M14 = test system: M14
HOP-62 = test system: HOP-62
MDA-MB-435 = test system: MDA-MB-435
Hs-578T = test system: Hs-578T
BT-549 = test system: BT-549
NCI-H522 = test system: NCI-H522
SNB-19 = test system: SNB-19
OVCAR-5 = test system: OVCAR-5
SR = test system: SR

N#CC1=C(N)OC2=C(CCCc3ccc([N+](=O)[O-])cc32)C1c1ccc(Cl)cc1 (stereo not given)
GI50 (PC-3): 3.94 µM (inactive)
GI50 (HT-29): 4.1 µM (inactive)
GI50 (HCT-116): 3.3 µM (inactive)
GI50 (TK-10): 10.6 µM (inactive)
GI50 (U-251): 4.57 µM (inactive)
GI50 (NCI-H226): 17 µM (inactive)
GI50 (SF-268): 8.43 µM (inactive)
GI50 (SK-MEL-28): 25.8 µM (inactive)
GI50 (HOP-92): 37 µM (inactive)
GI50 (DU-145): 8.51 µM (inactive)
GI50 (IGROV-1): 8.71 µM (inactive)
GI50 (RXF 393): 4.68 µM (inactive)
GI50 (COLO 205): 5.35 µM (inactive)
GI50 (MCF7): 4.03 µM (inactive)
GI50 (SF-539): 8.97 µM (inactive)
GI50 (SW-620): 9.35 µM (inactive)
GI50 (OVCAR-3): 6.34 µM (inactive)
GI50 (SK-MEL-5): 4.38 µM (inactive)
GI50 (CAKI-1): 4.11 µM (inactive)
GI50 (MOLT-4): 3.21 µM (inactive)
GI50 (T47D): 3.78 µM (inactive)
GI50 (A498): 5.73 µM (inactive)
GI50 (MDA-N): 6.7 µM (inactive)
GI50 (UACC-257): 6.08 µM (inactive)
GI50 (LOX IMVI): 4.6 µM (inactive)
GI50 (UO-31): 3.3 µM (inactive)
GI50 (RPMI-8226): 4.33 µM (inactive)
GI50 (A549): 6.7 µM (inactive)
GI50 (OVCAR-4): 3.3 µM (inactive)
GI50 (HCC 2998): 8.02 µM (inactive)
GI50 (SNB-75): 11.8 µM (inactive)
GI50 (786-0): 4.84 µM (inactive)
GI50 (HCT-15): 3.12 µM
GI50 (NCI/ADR-RES): 6.28 µM (inactive)
GI50 (SF-295): 11 µM (inactive)
GI50 (UACC-62): 5.02 µM (inactive)
GI50 (NCI-H23): 5.11 µM (inactive)
GI50 (HL-60): 1.89 µM (inactive)
GI50 (ACHN): 4.59 µM (inactive)
GI50 (K562): 3.88 µM (inactive)
GI50 (SN12C): 2.74 µM (inactive)
GI50 (SK-OV-3): 13.7 µM (inactive)
GI50 (MDA-MB-231): 7.91 µM (inactive)
GI50 (SK-MEL-2): 13.4 µM (inactive)
GI50 (KM12): 5.58 µM (inactive)
GI50 (OVCAR-8): 6.58 µM (inactive)
GI50 (Malme-3M): 11.3 µM (inactive)
GI50 (NCI-H460): 3.83 µM (inactive)
GI50 (CCRF-CEM): 4.39 µM (inactive)
GI50 (EKVX): 4.43 µM (inactive)
GI50 (M14): 16.4 µM (inactive)
GI50 (HOP-62): 19.7 µM (inactive)
GI50 (MDA-MB-435): 5.92 µM (inactive)
GI50 (Hs-578T): 17.1 µM (inactive)
GI50 (BT-549): 17.4 µM (inactive)
GI50 (NCI-H522): 6.41 µM (inactive)
GI50 (SNB-19): 32.9 µM (inactive)
GI50 (OVCAR-5): 16.6 µM (inactive)

COc1ccc(C)cc1N1C(=O)C2ON(Cc3ccc(CC(N)=O)cc3)C(c3c4ccccc4c(Cl)c4ccccc34)C2C1=O (stereo not given)
GI50 (PC-3): 28.1 µM (inactive)
GI50 (HT-29): 20.3 µM (inactive)
GI50 (HCT-116): 15.1 µM (inactive)
GI50 (TK-10): 23.1 µM (inactive)
GI50 (U-251): 24.3 µM (inactive)
GI50 (SF-268): 26.5 µM (inactive)
GI50 (SK-MEL-28): 44.1 µM (inactive)
GI50 (HOP-92): 32.6 µM (inactive)
GI50 (DU-145): 22.6 µM (inactive)
GI50 (SR): 12.8 µM (inactive)
GI50 (IGROV-1): 33.2 µM (inactive)
GI50 (RXF 393): 13.3 µM (inactive)
GI50 (MCF7): 26.4 µM (inactive)
GI50 (SW-620): 28.4 µM (inactive)
GI50 (OVCAR-3): 28.4 µM (inactive)
GI50 (CAKI-1): 25.8 µM (inactive)
GI50 (MOLT-4): 24.9 µM (inactive)
GI50 (T47D): 27.4 µM (inactive)
GI50 (MDA-N): 14.6 µM (inactive)
GI50 (UACC-257): 15 µM (inactive)
GI50 (LOX IMVI): 22.8 µM (inactive)
GI50 (UO-31): 25.7 µM (inactive)
GI50 (A549): 55.2 µM (inactive)
GI50 (OVCAR-4): 24.3 µM (inactive)
GI50 (SNB-75): 12.4 µM (inactive)
GI50 (786-0): 21.4 µM (inactive)
GI50 (HCT-15): 22.4 µM
GI50 (NCI/ADR-RES): 26.1 µM (inactive)
GI50 (SF-295): 22.9 µM (inactive)
GI50 (UACC-62): 19.7 µM (inactive)
GI50 (NCI-H23): 29.3 µM (inactive)
GI50 (HL-60): 27.6 µM (inactive)
GI50 (ACHN): 25.4 µM (inactive)
GI50 (K562): 28.8 µM (inactive)
GI50 (SN12C): 20.2 µM (inactive)
GI50 (SK-OV-3): 31.8 µM (inactive)
GI50 (MDA-MB-231): 19.9 µM (inactive)
GI50 (SK-MEL-2): 21.1 µM (inactive)
GI50 (KM12): 14 µM (inactive)
GI50 (OVCAR-8): 27.6 µM (inactive)
GI50 (Malme-3M): 31.1 µM (inactive)
GI50 (NCI-H460): 18.4 µM (inactive)
GI50 (CCRF-CEM): 21.5 µM (inactive)
GI50 (EKVX): 28.2 µM (inactive)
GI50 (M14): 19.3 µM (inactive)
GI50 (HOP-62): 27.7 µM (inactive)
GI50 (MDA-MB-435): 21.9 µM (inactive)
GI50 (Hs-578T): 41.9 µM (inactive)
GI50 (BT-549): 24.1 µM (inactive)
GI50 (NCI-H522): 32.1 µM (inactive)
GI50 (SNB-19): 32.1 µM (inactive)
GI50 (OVCAR-5): 23.6 µM (inactive)
